Measurements reported in US12655116B2, “Substituted isophthalic acid diamides” (Bayer Aktiengesellschaft, priority 2020, dated 2026).

What was measured:
AMARE [1] = test: Pre-emergence herbicidal action against AMARE; format: in vivo, Amaranthus retroflexus
Summary of the method: (§1)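 Pre-emergence soil-surface spray of formulated compound (WP or EC; 600 to 800 l/ha; 0.2% wetting agent) over seeds sown in sandy loam. After 3 weeks under greenhouse conditions, damage is estimated visually in percent against untreated plants.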

DIGSA [2] = test: Post-emergence herbicidal action against DIGSA; format: in vivo, Digitaria sanguinalis; details: 20 g/ha
Summary of the method: (§2)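 Greenhouse plants in sandy loam were sprayed at the one-leaf stage, 2 to 3 weeks after sowing, with WP or EC formulations as aqueous suspension or emulsion (600 to 800 l/ha water, 0.2% wetting agent). Visual damage was scored about 3 weeks later versus untreated controls, 0% = like control, 100% = dead.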

MATIN [3] = test: Pre-emergence herbicidal action against MATIN; format: in vivo, Matricaria inodora
Summary of the method: as §1

LOLRI = test: Pre-emergence herbicidal action against LOLRI; format: in vivo, Lolium rigidum; details: 80 g/ha
Summary of the method: as §1

SETVI = test: Pre-emergence herbicidal action against SETVI; format: in vivo, Setaria viridis; details: dosage 80 g/ha
Summary of the method: as §1

VIOTR [4] = test: Pre-emergence herbicidal action against VIOTR; format: in vivo, Viola tricolor
Summary of the method: as §1

PHBPU [5] = test: Pre-emergence herbicidal action against PHBPU; format: in vivo, Pharbitis purpurea; details: dosage 80 g/ha
Summary of the method: as §1

POLCO = test: Pre-emergence herbicidal action against POLCO; format: in vivo, Polygonum convolvulus; details: dosage 80 g/ha
Summary of the method: as §1

ALOMY [6] = test: Pre-emergence herbicidal action against ALOMY; format: in vivo, Alopecurus myosuroides; details: pre-emergence
Summary of the method: as §1

DIGSA [7] = test: Pre-emergence herbicidal action against DIGSA; format: in vivo, Digitaria sanguinalis
Summary of the method: as §1

ECHCG [8] = test: Pre-emergence herbicidal action against ECHCG; format: in vivo, Echinochloa crus-galli; details: 80 g/ha
Summary of the method: as §1

ABUTH [9] = test: Pre-emergence herbicidal action against ABUTH; format: in vivo, Abutilon theophrasti
Summary of the method: as §1

ECHCG [10] = test: Post-emergence herbicidal action against ECHCG; format: in vivo, Echinochloa crus-galli; details: dosage 20 g/ha
Summary of the method: as §2

AVEFA = test: Pre-emergence herbicidal action against AVEFA; format: in vivo, Avena fatua; details: 80 g/ha, pre-emergence
Summary of the method: as §1

MATIN [11] = test: Post-emergence herbicidal action against MATIN; format: in vivo, Matricaria inodora; details: Tripleurospermum inodorum, 504 h, dosage 20 g/ha
Summary of the method: as §2

ALOMY [12] = test: Post-emergence herbicidal action against ALOMY; format: in vivo, Alopecurus myosuroides; details: Alopecurus myosuroides, 504 h, dosage 20 g/ha, visual assessment about 3 weeks after treatment vs untreated controls
Summary of the method: as §2

VIOTR [13] = test: Post-emergence herbicidal action against VIOTR; format: in vivo, Viola tricolor; details: Viola tricolor, 504 h, 20 g/ha
Summary of the method: as §2

AMARE [14] = test: Post-emergence herbicidal action against AMARE; format: in vivo, Amaranthus retroflexus; details: Amaranthus retroflexus, 504 h, 20 g/ha, visual assessment about 3 weeks after treatment, 100% = plants have died, 0% = like control plants
Summary of the method: as §2

ABUTH [15] = test: Post-emergence herbicidal action against ABUTH; format: in vivo, Abutilon theophrasti; details: Abutilon theophrasti, 504 h, visual assessment about 3 weeks after treatment vs untreated controls
Summary of the method: as §2

PHBPU [16] = test: Post-emergence herbicidal action against PHBPU; format: in vivo, Pharbitis purpurea; details: Ipomoea purpurea, 504 h, dosage 20 g/ha
Summary of the method: as §2

VERPE = test: Pre-emergence herbicidal action against VERPE; format: in vivo, Veronica persica; details: Veronica persica, 504 h
Summary of the method: as §1

[17] = 80 g/ha, scored visually after 3 weeks vs untreated controls (100% = plants have died, 0% = like control plants)

CCn1nnnc1NC(=O)c1ccc(C(F)(F)F)c(C(=O)NCC(F)F)c1Br [Example 2-212]
Pre-emergence action against AMARE in % (AMARE [1]; [17]): 100%
Post-emergence action against DIGSA (DIGSA [2]): 100%
Pre-emergence action against MATIN in % (MATIN [3]; dosage 80 g/ha): 100%
Pre-emergence action against LOLRI in % (LOLRI): 90%
Pre-emergence action against SETVI in % (SETVI): 100%
Pre-emergence action against VIOTR in % (VIOTR [4]; dosage 80 g/ha): 100%
Pre-emergence action against PHBPU in % (PHBPU [5]): 80%
Pre-emergence action against POLCO in % (POLCO): 80%
Pre-emergence action against ALOMY (herbicidal activity) (ALOMY [6]; [17]): 100%
Pre-emergence action against DIGSA in % (DIGSA [7]; dosage 80 g/ha): 100%
Pre-emergence action against ECHCG in % (ECHCG [8]): 90%
Pre-emergence action against ABUTH (herbicidal activity) (ABUTH [9]; [17]): 100%
Post-emergence action against ECHCG in % (ECHCG [10]): 80%
Pre-emergence action against AVEFA in % (AVEFA): 90%

CCn1nnnc1NC(=O)c1ccc(C(F)F)c(C(=O)NC(C)C)c1Cl [Example 2-155]
pest or weed control at 20 g/ha (AMARE [1]; Amaranthus retroflexus, 504 h, 20 g/ha, scored visually after 3 weeks vs untreated controls, 100% = plants have died, 0% = like control plants): 100%
pest or weed control at 80 g/ha (AMARE [1]; Amaranthus retroflexus, 504 h, 80 g/ha, scored visually after 3 weeks vs untreated controls, 100% = plants have died, 0% = like control plants): 100%
pest or weed control at 20 g/ha (MATIN [3]; Tripleurospermum inodorum, 504 h, dosage 20 g/ha): 100%
pest or weed control at 80 g/ha (MATIN [3]; Tripleurospermum inodorum, 504 h, dosage 80 g/ha): 100%
pest or weed control at 80 g/ha (LOLRI; Lolium rigidum, 504 h): 80%
pest or weed control at 80 g/ha (SETVI; Setaria viridis, 504 h): 90%
pest or weed control at 20 g/ha (MATIN [11]): 90%
pest or weed control at 20 g/ha (VIOTR [4]; Viola tricolor, 504 h, dosage 20 g/ha): 90%
pest or weed control at 80 g/ha (VIOTR [4]; Viola tricolor, 504 h, dosage 80 g/ha): 100%
pest or weed control at 80 g/ha (PHBPU [5]; Ipomoea purpurea, 504 h): 100%
pest or weed control at 80 g/ha (POLCO; Fallopia convolvulus, 504 h): 90%
pest or weed control at 80 g/ha (ALOMY [6]; Alopecurus myosuroides, 504 h, 80 g/ha, scored visually after 3 weeks vs untreated controls (100% = plants have died, 0% = like control plants)): 100%
pest or weed control at 20 g/ha (ALOMY [6]; Alopecurus myosuroides, 504 h, 20 g/ha, scored visually after 3 weeks, 100% = plants have died, 0% = like control plants): 80%
pest or weed control at 20 g/ha (DIGSA [7]; Digitaria sanguinalis, 504 h, dosage 20 g/ha): 100%
pest or weed control at 80 g/ha (DIGSA [7]; Digitaria sanguinalis, 504 h, dosage 80 g/ha): 100%
pest or weed control at 20 g/ha (ALOMY [12]): 90%
pest or weed control at 20 g/ha (VIOTR [13]): 80%
pest or weed control at 80 g/ha (ECHCG [8]; Echinochloa crus-galli, 504 h): 100%
pest or weed control at 80 g/ha (ABUTH [9]; Abutilon theophrasti, 504 h, 80 g/ha, scored visually after 3 weeks vs untreated controls (100% = plants have died, 0% = like control plants)): 100%
pest or weed control at 20 g/ha (ABUTH [9]; Abutilon theophrasti, 504 h, dosage 20 g/ha, scored visually after 3 weeks vs untreated controls, 100% = plants have died, 0% = like control plants, read-out: Pre-emergence action against ABUTH (herbicidal activity in percent)): 100%
pest or weed control at 20 g/ha (AMARE [14]): 90%
pest or weed control at 5 g/ha (ABUTH [15]; dosage 5 g/ha): 80%
pest or weed control at 20 g/ha (ABUTH [15]; dosage 20 g/ha): 80%
pest or weed control at 20 g/ha (PHBPU [16]): 80%
pest or weed control at 20 g/ha (VERPE; dosage 20 g/ha): 80%
pest or weed control at 80 g/ha (VERPE; dosage 80 g/ha): 100%
pest or weed control at 80 g/ha (AVEFA; Avena fatua, 504 h): 90%
